Article PMC10799292, “The Role of β-Defensin 1 Against Porphyromonas gingivalis Lipopolysaccharide-Mediated Inflammation in the THP-1 Cell Line” (Cureus, 2023)
No end group written: not given here.

Legend:
COX = assay: Cyclooxygenase (COX) activity inhibition in lysate of Pg-LPS stimulated THP-1 cells; type: cell-based, human; conditions: for COX Percentage inhibition Average / COX Percentage inhibition 1 / COX Percentage inhibition 2: Pg-LPS 1 µg/mL, 24 h; for COX Percentage inhibition Average: mean of duplicates; for COX Percentage inhibition 1: replicate 1; for COX Percentage inhibition 2: replicate 2
Procedure: (§1) For inducing differentiation of THP-1 cells into macrophages, the cell line was premixed with 25 ng/mL PMA and incubated for 48 hours. After incubation, 5x10^4 cells were activated with Pg-LPS (LPS: 1 µg/mL) for one hour. Pg-LPS stimulated cells were exposed to different concentrations (6.25, 12.5, and 25 ng/mL) of β-defensin 1 and incubated for 24 hours. After incubation, the following anti-inflammatory assays were conducted utilizing the cell lysate.
The cyclooxygenase (COX) activity was assayed by the method of Walker and Gierse. The cell lysate was incubated for one minute at 25°C with Tris-HCl buffer (pH 8), glutathione 5 mM/L, and hemoglobin 5 mM/L. Arachidonic acid 200 mM/L was added to initiate the reaction, and after 20 minutes at 37°C, 200 µL of 10% trichloroacetic acid in 1 N hydrochloric acid was added to terminate the reaction. After centrifugation and addition of 200 µL of 1% thiobarbituric acid, the tubes were boiled for 20 minutes. After cooling, the tubes were centrifuged for three minutes. By reading absorbance at […], COX activity was measured, and the percentage of COX activity inhibition was calculated as per the following formula

LOX = assay: Lipoxygenase (LOX) activity inhibition in lysate of Pg-LPS stimulated THP-1 cells; type: cell-based, human; conditions: for LOX Percentage inhibition Average / LOX Percentage inhibition 1 / LOX Percentage inhibition 2: Pg-LPS 1 µg/mL, 24 h; for LOX Percentage inhibition Average: mean of duplicates; for LOX Percentage inhibition 1: replicate 1; for LOX Percentage inhibition 2: replicate 2
Procedure: as §1
The lipoxygenase (LOX) activity was determined using the method described by Axelrod in 1981 [12]. The reaction mixture consisted of 50 µL of cell lysate, Tris-HCl buffer (pH 7.4), and 200 µL of sodium linoleate. By determining absorbance at 234 nm (Agilent Cary 60), the formation of […], an indicator of LOX activity, was tracked. The percentage inhibition of the enzyme was computed as […]

[1] = test system: Inducible nitric oxide synthase; assay: Inducible nitric oxide synthase inhibition in lysate of Pg-LPS stimulated THP-1 cells; type: cell-based, human; conditions: for Inducible nitric oxide synthase Percentage inhibition Average / Inducible nitric oxide synthase Percentage inhibition 1 / Inducible nitric oxide synthase Percentage inhibition 2: Pg-LPS 1 µg/mL, 24 h; for Inducible nitric oxide synthase Percentage inhibition Average: mean of duplicates; for Inducible nitric oxide synthase Percentage inhibition 1: replicate 1; for Inducible nitric oxide synthase Percentage inhibition 2: replicate 2
Procedure: as §1
Nitric oxide synthase was measured using the method reported by Salter et al.. The cell lysate was homogenized in 2 ml of 4-(2-hydroxyethyl)-1-piperazineethanesulfonic acid (HEPES) buffer. The assay system contained 0.1 mL of 2 µmol/L L-Arginine, 0.1 mL of 4 µmol/L manganese chloride, 0.1 mL of 10 mmol/L 30 µg dithiothreitol (DTT), 0.1 mL of 1 mmol/L NADPH, 0.1 mL of 4 µmol/L tetrahydropterin, 0.1 mL of 10µmol/L oxygenated hemoglobin, and 0.1 mL of cell lysate. Enzyme activity was measured by recording an increase in absorbance at 401 nm, and the following equation was used: […]

THP-1 cells [2] = assay: Intracellular ROS generation, DCFDA assay; type: cell-based, human; conditions: β-defensin 1 22.62 ng/mL 24 h after Pg-LPS 1 µg/mL 1 h; DCFDA 30 min, ex 470 nm, em 635 nm; untreated control 2379
Procedure: Untreated control and Pg-LPS treated wells were also maintained. The cells were washed with PBS, and 50 µl of Dichlorodihydrofluorescein diacetate (DCFDA) was added, followed by incubation for 30 minutes. After incubation, excess dye was removed with PBS, and fluorescence was observed using a fluorescent microscope (Olympus CKX41 with Optika Pro5 CCD camera) and quantified with a fluorimeter at 470 nm excitation and emission at […] (Qubit 3.0, Life Technologies, USA), displaying the results in arbitrary units (AU).
The effect of β-defensin 1 on ROS generation in THP-1 cells stimulated with Pg-LPS was studied. DCFDA, a fluorogenic dye, measures hydroxyl, peroxyl, and other ROS activities within the cell. After entering the cell, DCFDA is deacetylated by cellular esterases into a non-fluorescent compound. This nonfluorescent chemical is then oxidized by ROS into […] (DCF), which, upon excitation with a blue filter, emits green fluorescence. When THP-1 cells were stimulated with Pg-LPS, there was a considerable increase in fluorescence, which decreased upon treatment with β-defensin 1, as shown in Figure 7 and Table 2.

THP-1 cells [3] = assay: Apoptosis by flow cytometry (Annexin V & Dead Cell); type: cell-based, human; conditions: β-defensin 1 22.62 ng/mL 24 h after Pg-LPS 1 µg/mL; untreated control 87.25%
Procedure: Untreated control and Pg-LPS treated wells were also maintained. To the tubes, 100 μL of the Muse™ Annexin V & Dead Cell Reagents were added separately. The tubes were completely mixed by pipetting up and down or spinning at a medium speed for three to five seconds, followed by 20 minutes of incubation in the dark at room temperature. The cells were examined with a Flow Cytometer, gated against untreated control cells, and evaluated for apoptosis with the Muse FCS 3.0 software.
The Muse Annexin V & Dead Cell Kit is a method to analyze cells in various stages of apoptosis, where fluorescently labeled Annexin V binds to phosphatidylserine (PS), which translocates to the outer surface of the cell membrane upon the onset of apoptosis. 7-AAD is excluded from live and healthy cells and permeates late-stage apoptotic and dead cells. […] The result is depicted in Figure 9.

[4] = molecular docking; cited from earlier work
From the text: Two important functions of macrophages are to eliminate pathogens through phagocytosis and apoptosis of inflammatory cells and their subsequent clearance (efferocytosis). The present study analyzed the role of AMP, β-defensin 1, in Pg-LPS-stimulated THP-1 differentiated macrophage cells.

[5] = 6.25, 12.5, and 25 ng/mL, Pg-LPS stimulated

β-defensin 1: β-Defensin 1 peptide was purchased from ThermoFisher Scientific, USA; cationic antimicrobial peptide (DHYNCVSSGGQCLYSACPIFTKIQGTCYRGKAKCCK; ends and bridges not checked; cysteine pairing not given here; UniProt P60022 33-68, looked up)
COX Percentage inhibition Average (COX; 6.25 ng/mL): 19.085% | COX Percentage inhibition 1 (COX; 6.25 ng/mL): 19.77% | COX Percentage inhibition 2 (COX; 6.25 ng/mL): 18.4% | COX Percentage inhibition Average (COX; 12.5 ng/mL): 35.75% | COX Percentage inhibition 1 (COX; 12.5 ng/mL): 36.41% | COX Percentage inhibition 2 (COX; 12.5 ng/mL): 35.09% | COX Percentage inhibition Average (COX; 25 ng/mL): 53.03% | COX Percentage inhibition 1 (COX; 25 ng/mL): 53.21% | COX Percentage inhibition 2 (COX; 25 ng/mL): 52.85% | COX percentage inhibition (in words) (COX; [5]): increased in a concentration-dependent manner | IC50 (COX inhibition assay) (COX; Pg-LPS 1 µg/mL 1 h, then β-defensin 1 24 h): 0.02262 mg/L | LOX Percentage inhibition Average (LOX; 6.25 ng/mL): 21.485% | LOX Percentage inhibition 1 (LOX; 6.25 ng/mL): 21.23% | LOX Percentage inhibition 2 (LOX; 6.25 ng/mL): 21.74% | LOX Percentage inhibition Average (LOX; 12.5 ng/mL): 38.08% | LOX Percentage inhibition 1 (LOX; 12.5 ng/mL): 38.85% | LOX Percentage inhibition 2 (LOX; 12.5 ng/mL): 37.31% | LOX Percentage inhibition Average (LOX; 25 ng/mL): 54.675% | LOX Percentage inhibition 1 (LOX; 25 ng/mL): 55.2% | LOX Percentage inhibition 2 (LOX; 25 ng/mL): 54.15% | LOX percentage inhibition (in words) (LOX; [5]): increased in a concentration-dependent manner | Inducible nitric oxide synthase Percentage inhibition Average ([1]; 6.25 ng/mL): 19.08% | Inducible nitric oxide synthase Percentage inhibition 1 ([1]; 6.25 ng/mL): 18.99% | Inducible nitric oxide synthase Percentage inhibition 2 ([1]; 6.25 ng/mL): 19.17% | Inducible nitric oxide synthase Percentage inhibition Average ([1]; 12.5 ng/mL): 34.275% | Inducible nitric oxide synthase Percentage inhibition 1 ([1]; 12.5 ng/mL): 34.63% | Inducible nitric oxide synthase Percentage inhibition 2 ([1]; 12.5 ng/mL): 33.92% | Inducible nitric oxide synthase Percentage inhibition Average ([1]; 25 ng/mL): 50.135% | Inducible nitric oxide synthase Percentage inhibition 1 ([1]; 25 ng/mL): 50.27% | Inducible nitric oxide synthase Percentage inhibition 2 ([1]; 25 ng/mL): 50% | inducible nitric oxide synthase percentage inhibition (in words) [1, 5]: increased in a concentration-dependent manner | ROS generation, Fluorescence intensity (THP-1 cells [2]): 5006.24 AU | live cells (THP-1 cells [3]): 77.35% | binding affinity with Pg-LPS (docking) [4]: good binding affinity with Pg-LPS
